# Data: patent US20260200965A1, “NOVEL COMPOUND DERIVED FROM LORANTHUS TANAKAE AND ANTICANCER USE THEREOF” (KOREA INSTITUTE OF ORIENTAL MEDICINE, priority 2022, published 2026)
# Where “and” joins values, the source holds several entries; their conditions need not be identical. Identical values can stand only once.
# Legend:
# [1] = system: NHDF (normal human dermal fibroblast) cells; assay: Toxicity test in normal cells (WST-8); type: cell-based
# Method: NHDF (normal human dermal fibroblast; ATCC, USA) cells were seeded at about 5,000 cells per well in a 96-well plate and stabilized for 24 hours, and then treated with Lotanoside B isolated in Example 2 at various concentrations (0, 6.25, 12.5, 25, or 50 μM). As a control group, 5-FU (anticancer drug) and kaempferol were treated at various concentrations (5-FU: 0, 1.25, 2.5, 5 or 10 μM; kaempferol: 0, 5, 10, 20 or 40 μM). After culturing in a CO2 incubator for 48 hours, WST-8 ((2-(2-methoxy-4-nitrophenyl)-3-(4-nitrophenyl)-5-(2,4-disulfophenyl)-2H-tetrazolium, monosodium salt) reagent was treated, and after culturing for 2 hours, the optical density (OD) was measured at a wavelength of 450 nm by using a microplate reader.
# [2] = system: SKMEL-5 melanoma cancer cells; assay: Cancer cell growth inhibition (WST-8 assay); type: cell-based
# Method: SKMEL-5 melanoma cancer cells (ATCC, USA) were dispensed into a 96-well plate at 1,000 cells per well and stabilized for 24 hours, and then treated with Lotanoside B at different concentrations (0, 6.25, 12.5, 25 or 50 μM). As a control group, 5-FU (anticancer drug) and kaempferol were treated at different concentrations, respectively (5-FU: 0, 1.25, 2.5, 5 or 10 μM; kaempferol: 0, 5, 10, 20 or 40 μM). Afterwards, the cells were cultured in a CO2 incubator for 72 hours, and then treated with WST-8 ((2-(2-methoxy-4-nitrophenyl)-3-(4-nitrophenyl)-5-(2,4-disulfophenyl)-2H-tetrazolium, monosodium salt) reagent, and after culturing for about 2 hours, the optical density (OD) was measured at a wavelength of 450 nm by using a microplate reader.
# [3] = system: mouse skin epithelial cell JB6; assay: TPA-induced cell transformation colony growth inhibition (soft agar); type: cell-based; details: TPA 10 ng/ml, JB6 colonies, about 2 weeks
# Method: (§1) The carcinogenicity inhibitory effect of the extract of Loranthus tanakae Franch. & Sav was determined in a carcinogenic model in which the mouse skin epithelial cell JB6 (ATCC, USA) was treated with EGF, which is a growth factor that increases cancer cell occurrence, and TPA, which is a tumor-promoting factor, to induce malignant transformation.
# (§2) Specifically, agar mix (0.5%) including BME, FBS, glutamine, gentamicin, PBS and 1.25% agar, EGF (10 ng/ml) or TPA (10 ng/ml) and the 70% ethanol extract of Loranthus tanakae Franch. & Sav prepared in Example 1-1 were mixed, dispensed into 6-well plates at 3 mL per well, and solidified (bottom agar). Mouse skin epithelial cells JB6 (ATCC, USA) were detached by trypsin treatment, washed with 1×PBS, and resuspended in 10% BME to determine the cell number. 8,000 cells were prepared per well, and agar mix (0.3%), EGF or TPA and the 70% ethanol extract of Loranthus tanakae Franch. & Sav prepared in Example 1-1 were mixed, dispensed into 1 mL per well, and solidified (upper agar). After culturing in a CO2 incubator for about 2 weeks, colonies were photographed under a microscope, and the number of colonies was counted by using Image-Pro Plus software (v.6.0) program (Media Cybernetics, Silver Spring, MD, USA).
# [4] = system: mouse skin epithelial cell JB6; assay: EGF-induced cell transformation colony growth inhibition (soft agar); type: cell-based; details: EGF 10 ng/ml, JB6 colonies, about 2 weeks
# Method: as §1, §2
# [5] = system: DMBA/TPA-induced skin cancer; type: in vivo, ICR mice
# Method: Female ICR mice (5 weeks old, 20~25 g) were purchased as experimental animals from Samtaco Co., Ltd. (Osan, Korea), and were provided with water and food freely in a cage equipped with a constant temperature and humidity device. After a one-week adaptation period, the hair on the back of the mice was removed, and they were divided into six groups as shown in Table 1 and raised for 20 weeks.
# When DMBA (7,12-Dimethylbenz[a]anthracene), which induces carcinogenesis, is treated to the depilated area and TPA (12-Otetradecanoylphorbol-13-acetate, promoter) is continuously applied, skin inflammation and skin cancer are induced. […] TPA, Lotanoside B and 5-FU were diluted in acetone and topically treated to the back area twice a week, and the number and size of the tumors formed and the weight of the mice were measured.
# [6] = 0.1 and 1 μmole topical twice a week, 20 weeks, vs DMBA/TPA group, reduction greater at 1 μmole
smiles,measurement,setting,value
"O=c1[nH]cc(F)c(=O)[nH]1 [5-FU, fluorouracil]",concentration at which toxicity begins to show,"[1]; human, 48 h",10 µM
"COc1cc(O)c2c(=O)c(OC3OC(C)C(O)C(O)C3O)c(-c3ccc(OC4OC(COC(=O)/C=C/c5ccccc5)C(O)C(O)C4O)c(O)c3)oc2c1 (stereo not drawn) [Lotanoside B, rhamnetin-3-O-rhamnoside-4′-O-(6″-O-cinnamoyl)-glucoside]",IC50,"[2]; Homo sapiens, SK-MEL-5, SKMEL-5, 72 hours, WST-8",32.1 µM
same,cancer cell growth inhibition effect compared to kaempferol,"[2]; SKMEL-5, 72 hours, WST-8",superior cancer cell growth inhibition effect compared to kaempferol
same,cancer cell growth inhibition effect,"[2]; SKMEL-5, at a concentration that did not exhibit toxicity",78.5%
same,inhibition rate compared to the TPA treatment group,[3]; 50 μM,76.2%
same,inhibition at 50 µM,"[3]; Mus musculus, Epithelial cell, 336 h, 50 μM, read-out: inhibition rate compared to the TPA treatment group",74.2%
same,inhibition at 50 µM,"[4]; Mus musculus, Epithelial cell, 336 h, 50 μM, read-out: inhibition rate compared to the EGF treatment group",66.7%
same,concentration at which toxicity begins to show,"[1]; human, 48 h",> 50 µM
same,number of tumors,[5]; [6],decreased
same,tumor area,[5]; [6],decreased
same,tumor incidence,[5]; [6],decreased
same,effect in inhibiting skin cancer formation compared to 5-FU,[5]; 5-FU 0.1 μmole as positive control,superior effect in inhibiting skin cancer formation compared to 5-FU
O=c1c(O)c(-c2ccc(O)cc2)oc2cc(O)cc(O)c12 [kaempferol],concentration at which toxicity begins to show,"[1]; NHDF, 48 hours, WST-8",40 µM
COc1cc(O)c2c(=O)c(OC3OC(CO)C(O)C(O)C3O)c(-c3ccc(O)c(O)c3)oc2c1 (stereo not drawn) [rhamnetin-3-O-glucoside],inhibition rate compared to the TPA treatment group,[3]; test concentration not given,76.2% and 74.2%
same,inhibition rate compared to the EGF treatment group,[4]; test concentration not given,92.9%
